The results in this text go back to US20190083498A1, “THERAPIES FOR HEMATOLOGIC MALIGNANCIES” (GILEAD CALISTOGA LLC, priority 2008, published 2019).

One data set deals with CLL cells. Nature of the data set: BH3 profiling, mitochondrial depolarization (JC-1). The class given is cell-based, human. As to the method: BH3 profiling: CLL patient peripheral blood, bone marrow, and lymph node samples were analyzed by either the plate-based fluorimetry or FACS method. Briefly, PBMCs from CLL patients were made into single cell suspensions and gently permeabilized using digitonin (0.002%). For the fluorimtery-based method, 100 μM JC-1 (Invitrogen) was added at this time and cells were then loaded onto a 384-well plate, with individual wells containing individual BH3-only peptides. The JC1-BH3 assays were then conducted in triplicate on a Tecan Safire 2 with Ex 545 +/−[…] and Em 590 +/−20 nm with a three-hour time course. For the FACS-based method, single cell suspensions from CLL patient PBMCs were stained using human Fc Block (BD Pharmingen) followed by anti-CD19-V450 (BD Pharmingen) and anti-CXCR4-APC (BD Pharmingen). […] JC-1 was measured from the 488-nm laser using a 530/30-nm filter (FITC) and a 585/42-nm filter (PE), and the degree of mitochondrial depolarization was calculated using the surrogate of the change in the median of PE signal. The mitochondrial depolarization reported in response to each BH3 peptide is normalized relative to the median percentage change in PE fluorescence of the JC-1 dye with a negative control, dimethyl sulfoxide (DMSO) (0%) and a positive control, the mitochondrial uncoupling agent carbonyl cyanide 4-(trifluoromethoxy)- phenylhydrazone (FCCP) (100%).

Another data set has as its system HuVEC cells. Nature of the data set: AKT and ERK1/2 in HuVEC lysates, immunoblotting. Format: cell-based, human. As to conditions: 0-200 μM; 8 h. The text has this: Actin was used as a loading control.
A general note: Immunoblotting shows a protein as a band on a membrane.

For data set [1], the system named is HuVECs. As to the kind of experiment: HuVEC viability, MTT. Format: cell-based, human. The settings on record: 0-20 μM, 48 h. The text has this:
Data shown are mean ±SE of triplicate wells from a representative experiment.

In data set [2] the test system is HuVECs. As to the kind of experiment: In vitro angiogenesis assay, endothelial cell tube formation. Format: cell-based, human. As to conditions: 0, 1.0, or 10 μM; 8 h. The procedure:
HUVEC and endothelial growth media were obtained from Lonza (Walkersville, Md., USA). […] After 8 h, tube formation was evaluated using Leika DM IL microscopy (Leica Microsystems, Wetzlar, Germany) and analyzed with IM50 software (Leica Microsystems Imaging Solutions, Cambridge, UK). HUVEC cell migration and rearrangement was visualized, and the number of branching points counted.
The effect of P110 δ inhibition on angiogenesis was investigated.

The next data set relates to LB and INA-6 cells. Nature of the data set: MM cell DNA synthesis with IL-6 or IGF-1, [3H]-thymidine incorporation. Format: cell-based, human. The settings on record: 5.0 or 10 μM; IL-6 1 and 10 ng/ml, IGF-1 10 and 100 ng/mL. As to the method: DNA synthesis was determined by measuring [3H]-thymidine incorporation during the last 8 h of 72 h cultures. Data represent means (±SD) of triplicate cultures.
For orientation: Uptake of a labelled nucleoside into DNA is a usual measure of proliferation.

A further data set concerns FL cell lines. Nature of the data set: PI3K signaling and apoptosis in follicular lymphoma cell lines. The class given is cell-based.
Data set [3] has as its system Akt (Ser473) phosphorylation. As to the kind of experiment: Akt phosphorylation in ALL cell lines. The class given is cell-based.
Data set [4] deals with LB and INA-6 MM cells with BMSCs. Nature of the data set: Paracrine MM cell growth, cytokine secretion and signaling with BMSCs. The class given is cell-based, human. As to conditions: 48 h. The procedure:
MM cells (2×10^4 cells/well) were cultured for 48 h in BMSC coated 96-well plates (Costar, Cambridge, Mass.), in the presence or absence of drug. DNA synthesis was measured by [3H]-thymidine (Perkin-Elmer, Boston, Mass.) uptake, with [3H]-thymidine (0.5μ Ci/well) added during the last 8 h of 48 h cultures. All experiments were performed in quadruplicate.
Cytokine secretion by human BMSCs cocultured with MM cells was assessed by ELISA. […] After 48 h, supernatants were harvested and stored at −80° C. Cytokines were measured using Duo set ELISA Development Kits (R&D Systems, Minneapolis, Minn.). All measurements were carried out in triplicate.
The cytokine levels in culture supernatants were assessed using Proteome Profiler Antibody Arrays Panel A (R&D Systems, Minneapolis, Minn.), Supernatants from co-cultures with BMSCs were incubated for 4 hours with membranes arrayed with Abs against 37 cytokines, according to manufacturer's instructions.
DNA synthesis was determined by [3H]-thymidine incorporation. Data represent means (±SD) of triplicate cultures.
Error bars indicate SD (±).
INA-6 cells cultured with or without BMSCs were treated with compound for 48 h. Total cell lysates were subjected to immunoblotting using indicated antibodies, FIG. 34F. Actin was used as a loading control.

The next data set has as its system phospho-Akt(Ser473). Nature of the data set: Constitutive Akt phosphorylation in leukemia and lymphoma cell lines, immunoblot. The class given is cell-based. The procedure: A large panel of leukemia and lymphoma cell lines was assessed for constitutive Akt phosphorylation. These cell lines represent B-lymphoma, T-lymphoma, ALL, Malignant histiocytosis, DLBCL and AML. […] Thereafter, cell were lysed, size-fractioned and immunoblotted with antibodies directed against phospho-Akt(Ser473).
The PI3K pathway is frequently deregulated in leukemia and lymphoma cell lines. […] In addition, PI3K pathway activation is dependent on p110δ.

The test system of another data set is patient MM cells. As to the kind of experiment: Viability of patient MM cells, MTT. Format: cell-based, human. As to conditions: 48 h.
Data set [5] deals with HS-578T, T47D, and MCF7 cells. Nature of the data set: Apoptosis in breast cancer cell lines, Annexin V-FITC/7AAD. Format: cell-based. As to conditions: 24 h. The procedure:
HS-578T, T47D, and MCF7 cells were treated with the compound of formula I or corresponding DMSO concentrations for 24 h. The percentage of apoptotic cells was determined by Annexin V-FITC/7AAD staining Bottom left, viable cells (Annexin V-FITC/[…] negative); bottom right, early apoptotic cells (Annexin V-FITC positive only); top right, mid-late apoptotic cells (Annexin V-FITC/7AAD double-positive); and top left, late apoptotic/necrotic (7AAD positive only). Percentages of cells in each quadrant are indicated except for the bottom left quadrant (viable cells).

The subject of the next data set is BMSCs. Nature of the data set: BMSC viability, MTT. Format: cell-based, human. The settings on record: 0-20 μM, 48 h. The procedure:
Cell viability was assessed by MTT assay, FIG. 34G. Values represent mean ±SD of triplicate cultures.

Molecules are shown by their SMILES. Values joined by “and” are separate entries in the source; they are usually repeats but may differ in a detail not shown here. Identical values can stand only once.

Description for patient MM cells: Patient MM and BM cells were obtained from BM samples after informed consent was obtained per the Declaration of Helsinki and approval by the Institutional Review Board of the Dana-Farber Cancer Institute (Boston, Mass.). BM mononuclear cells were separated using Ficoll-Paque™ density sedimentation, and plasma cells were purified (>95% CD138+) by positive selection with anti-CD138 magnetic activated cell separation micro beads (Miltenyi Biotec, Auburn, Calif.). Tumor cells were also purified from the BM of MM patients using the RosetteSep negative selection system (StemCell Technologies, Vancouver, BC, Canada).
Data represent mean ±SD viability, assessed by MTT assay of triplicate cultures, expressed as percentage of untreated controls.

With `CC[C@H](Nc1ncnc2[nH]cnc12)c1nc2cccc(F)c2c(=O)n1-c1ccccc1` [Compound I, 5-fluoro-3-phenyl-2-[1-(9H-purin-6-ylamino)-propyl]-3H-quinazolin-4-one], the “mitochondrial priming of stroma-exposed CLL cells” value with CLL cells (24 hours, p=0.075) was “increased mitochondrial priming”. Further, in the data set with CLL cells (p=0.046 and p=0.047), the “mitochondrial depolarization induced by BAD BH3 peptide and ABT-737 in treated CLL cells” value is listed as “significantly more mitochondrial depolarization”. The “phosphorylation and expression of AKT and ERK1/2” value with HuVEC cells is reported as “markedly down regulated”. Besides, the “cytotoxicity in HuVECs” value in the data set on HuVECs [1] is “without associated cytotoxicity”. The capillary-like tube formation result in the data set on HuVECs [2] is recorded as “inhibited capillary-like tube formation in a dose-dependent fashion”. Moreover, the “growth inhibition in the presence of IL-6 or IGF-1” value with LB and INA-6 cells is “Neither IL-6 nor IGF-1 protected”. Besides, the “pAkt, Akt, pS6 and S6 in FL cell lines” value in the data set with FL cell lines (certain cell lines) is “reduction in the production of pAkt, Akt, pS6 and S6”. Besides, in the data set with FL cell lines (dose dependent, 24 hours, 0.1 μM and 0.5 μM), the “cleavage of PARP and Caspase-3 in FL cell lines” value was “Cleavage of PARP and Caspase-3 is observed”. Besides, in data set [3], the “Akt phosphorylation in ALL cell lines” value is recorded as “reduction in Akt phosphorylation”. For the same compound, in data set [4] (2.5, 5, 10 μM), the “MM cell growth induced by BMSCs” value is recorded as “inhibited”. Moreover, the “cytokine secretion induced by BMSCs” value in [4] (ELISA, cytokine arrays) is given as “inhibited”. Moreover, the “phosphorylation of AKT and ERK induced by BMSCs” value in data set [4] (INA-6 with BMSCs) is “inhibited”. Besides, the “cell lines in which constitutive AKT phosphorylation was inhibited (FIG. 9)” value with phospho-Akt(Ser473) (10 μM, 2 hrs, including B-cell and T-cell lymphomas) is 11 out of 11. The “constitutive Akt(Ser473) phosphorylation” value in the data set with phospho-Akt(Ser473) (hematopoietic tumor cell lines, 2 hours) is recorded as “Reduction in Akt(Ser473) was achieved for all cell lines”. Further, the “cell lines in which constitutive AKT phosphorylation was inhibited” value with phospho-Akt(Ser473) (leukemia and lymphoma cell lines with constitutive p-AKT) was 13 of 13 and 13 out of 13. Moreover, in the data set on patient MM cells, the “cytotoxicity against patient MM cells” value is “induced cytotoxicity”. Further, the “apoptosis in breast cancer cell lines” value in data set [5] was “induces apoptosis”. For the same compound, the “growth inhibition in BMSCs” value in the data set with BMSCs is “no significant growth inhibition”.
